Laboratory results published in patent US20090023700A1, “NEUROPROTECTIVE TREATMENTS” (University of Louisville Research Foundation, priority 2007, published 2009).

Tests used:
cdc25B PTP [1] = molecular target: T1, cdc25B PTP (Mus musculus, UniProt P30306); conditions: mouse enzyme; cited from earlier work
T1 sequence (P30306 1-576): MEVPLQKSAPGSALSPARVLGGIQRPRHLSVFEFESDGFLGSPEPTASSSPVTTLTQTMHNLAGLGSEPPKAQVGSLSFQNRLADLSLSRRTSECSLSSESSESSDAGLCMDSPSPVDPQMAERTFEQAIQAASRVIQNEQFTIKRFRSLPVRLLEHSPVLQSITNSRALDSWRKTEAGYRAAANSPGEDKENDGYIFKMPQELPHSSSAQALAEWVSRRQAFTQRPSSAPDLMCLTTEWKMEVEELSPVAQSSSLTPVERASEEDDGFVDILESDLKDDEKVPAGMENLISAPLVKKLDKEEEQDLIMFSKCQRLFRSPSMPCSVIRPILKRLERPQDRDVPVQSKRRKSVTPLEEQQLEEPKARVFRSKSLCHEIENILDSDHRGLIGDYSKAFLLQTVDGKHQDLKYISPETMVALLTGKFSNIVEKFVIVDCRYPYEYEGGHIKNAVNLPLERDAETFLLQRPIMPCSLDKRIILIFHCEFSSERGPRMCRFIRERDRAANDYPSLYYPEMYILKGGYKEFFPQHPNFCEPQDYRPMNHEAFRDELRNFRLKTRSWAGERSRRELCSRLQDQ

rat cardiomyocytes = conditions: cited from earlier work
[2] = tested on: human aortic endothelial cells; test: Apoptosis of serum-deprived cultured endothelial cells; assay type: cell-based; conditions: for apoptotic endothelial cells: 3 μM
Description: To determine whether bpV(phen) can directly promote survival of endothelial cells, it was tested on cultured human aortic endothelial cells deprived of serum. […] With 3 μM bpV(phen), only ˜1.3% were apoptotic in both the 0 and 5% serum groups (FIG. 9A). Eighteen hours after plating under control conditions, between 5 and 13% of endothelial cells were apoptotic, whereas treatment with 3 μM bpV(phen) reduced apoptosis to ˜2-3% (FIG. 9B).
Endothelial cell cultures. Human aortic endothelial cells (Lonza Walkersville) were plated at 5×10^4 cells per well in 24 well polystyrene plates and incubated with different concentrations of bpV(phen) for 6 or 18 h at 37° C. in DMEM/Ham's F-12 (BioWhittaker) plus EGM-2 growth factor supplements [EGM-2 SingleQuots (Lonza Walkersville) containing hydrocortisone, human epidermal growth factor, FBS, vascular endothelial growth factor, human basic fibroblast growth factor, R3-IGF-1, ascorbic acid, heparin, and gentamicin/amphotericin-B] and 10-20% fetal calf serum. […] Afterward, the endothelial cells were fixed in 4% paraformaldehyde for 2 h, the nuclei were stained with 2.5 μg/ml DNA dye Hoechst 33258 (bis-benzimide; Sigma) in PBS containing 0.1% Triton X-100 for 30 min, and the cells were covered with Fluoromount-G (Southern Biotechnology) to reduce fluorescence-induced fading (Invitrogen).
Quantitative measurements and statistics. The extent of sensory innervation of the gracile nucleus was determined by measuring the CTB-labeled terminal fiber area in every third section as described previously (Baker et al. (2007) Exp Neurol 205:82-91). In short, images of every third section through the right and left gracile nuclei were analyzed using the density slice feature of the Scion Image software. […] Images of EC-stained sections were captured, and the positive areas were measured with Scion Image. […] The number of spared myelinated axons at C3 was counted in semithin sections using a 63× oil objective in 15.7×15.7 μm grids placed over the middle part of each fasciculus gracilis (see FIG. 4D-4F). […]

cdc25B PTP [3] = conditions: yeast enzyme; cited from earlier work
PTPs = conditions: cited from earlier work

**Q.** For O.O.O.OO.OO.[K+].[OH-].[V].c1cnc2c(c1)ccc1cccnc12 [bpV(phen), potassium bisperoxo(1,10-phenanthroline)oxovanadate (V)], which “inhibition of catalytic activity of purified cdc25B PTP” value (cdc25B PTP [1]) is on record?
**A.** can inhibit

**Q.** What about the glutathione concentration (rat cardiomyocytes) of the same compound?
**A.** does not change

**Q.** And the endothelial apoptosis ([2]; 1 μM, 18 h, 0, 1.25, 2.5 and 5% serum)?
**A.** only reduces endothelial apoptosis in the 2.5 and 5% serum groups

**Q.** And the apoptotic endothelial cells ([2]; 6 h after plating, 0 and 5% serum groups, control 2-3%)?
**A.** ~1.3%

**Q.** What about the apoptotic endothelial cells ([2]; 18 h after plating, serum deprived, control 5-13%) of the same compound?
**A.** 2-3%

**Q.** What about the “inhibition of catalytic activity of purified cdc25B PTP” value (cdc25B PTP [3]) of the same compound?
**A.** can inhibit

**Q.** What about the “inhibition of PTPs” value (PTPs) of the same compound?
**A.** inhibits
